These results are taken from patent US20240383870A1, “HETEROCYCLIC ALDEHYDE TRAPPING COMPOUNDS AND USES THEREOF” (Aldeyra Therapeutics, Inc., priority 2021, published 2024).

Assay type in all cases: in vivo
One experiment concerns MIP2(CXCL2). As to the kind of experiment: Acute LPS-induced sepsis in C57BL/6 mice: MIP2(CXCL2) cytokine detection assay. The note with it: LPS-challenged mice, plasma at 6.5 h, unpaired t-test vs vehicle. From the text:
FIG. 27 is a graph showing the results of a MIP2(CXCL2) cytokine detection assay in samples collected from mouse subjects after administration of compounds of the present disclosure.
(§1) The primary objective of this study was to collect plasma samples of lipopolysaccharide (LPS) challenged C57BL/6 mice after dose of test compounds to provide a cytokine profile as impacted by prophylactic treatments. This study models acute sepsis, which is a systemic inflammatory syndrome initiated by Gram-negative and Gram-positive bacteria and fungi which infect the lungs, abdomen, bloodstream, and renal or genitourinary tracts. Sepsis patients ultimately die of multiorgan failure which is caused by extensive tissue hypo-oxygenation due to ongoing microvascular leakage, disseminated intravascular coagulation, compromised energy production, and metabolic alterations. Sepsis is characterized by an early systemic inflammatory response phase featuring symptoms, such as tachycardia, fever, hyperventilation, and activation of the complement and coagulation cascades. However, it is now appreciated that a compensatory anti-inflammatory response phase follows, characterized by neuroendocrine-mediated immunosuppression. Since these processes are the result of interaction between cells of inflammation and organs, investigation of the treatment of this syndrome requires the use of intact animal models. The use of ten mice per group allows useful statistical modelling of the results.
(§2) For the data shown in Table 2A, 103 mice (female, 18-22 gram, C57BL/6) were purchased from ENVIGO. The mice were housed in 20 cages of 5 mice per cage with 1 cage of 3 mice as extra. The cages had filter tops and autoclaved bedding, and the animals were placed in quarantine with daily inspection. The treatment groups are detailed in Table 2A below. 10 mice were included in each group. […] MC=methyl cellulose.
(§3) For the data shown in Table 2B, 185 mice (female, 18-22 gram, C57BL/6) were purchased from ENVIGO. The mice were housed in 37 cages of 5 mice per cage. The cages had filter tops and autoclaved bedding, and the animals were placed in quarantine with daily inspection. The treatment groups are detailed in Table 2B below. 10 mice were included in each group. The mice were dosed by oral gavage (P0) at 10 ml/kg as per the table below. MC=methyl cellulose.
(§4) At T=0 h, the mice were dosed with one of the test compounds as described in the above table.
(§5) At T=0.5 h, the mice were injected IP with 1.5 mg/kg […] (Sigma).
(§6) At T=6.5 h, all mice were anesthetized and exsanguinated into pre-chilled EDTA-treated tubes. […]
(§7) A 32-plex cytokine panel was obtained from Eve Technologies. Each cytokine was assessed based against a 7 point curve range in duplicate. […]

The next experiment relates to IL-3. As to the kind of experiment: Acute LPS-induced sepsis in C57BL/6 mice: IL-3 cytokine detection assay. The note with it: 75 mpk PO; LPS-challenged mice, plasma at 6.5 h; unpaired t-test vs vehicle.
In the next experiment the test system is KC. The experiment can be described thus: Acute LPS-induced sepsis in C57BL/6 mice: KC cytokine detection assay. The note with it: LPS-challenged mice, plasma at 6.5 h, unpaired t-test vs vehicle.
Excerpt: FIG. 20 is a graph showing the results of a KC cytokine detection assay in samples collected from mouse subjects after administration of compounds of the present disclosure.
as §1
(§8) For the data shown in Table 2A, 103 mice (female, 18-22 gram, C57BL/6) were purchased from ENVIGO. The mice were housed in 20 cages of 5 mice per cage with 1 cage of 3 mice as extra. The cages had filter tops and autoclaved bedding, and the animals were placed in quarantine with daily inspection. The treatment groups are detailed in Table 2A below. 10 mice were included in each group. The mice were dosed by oral gavage (PO) at 10 ml/kg as per the table below. MC=methyl cellulose.
as §3, §4, §5
(§9) At T=6.5 h, all mice were anesthetized and exsanguinated into pre-chilled EDTA-treated tubes. The blood was processed to plasma which was stored in labeled 0.5 polypropylene snap-cap tubes (0.5 mL Eppendorf Safe-Lock Tubes (Fisher Scientific) at −80° C.
(§10) Preparation of vehicle: 1.0 gram of methyl cellulose (Sigma) was dissolved in 200 mL of water (USP purified) to make a solution of 0.5% methyl cellulose in water. Preparation of LPS solution: 6 mg of LPS (from Escherichia Coli 055:B5, Cat #L2880, Sigma Lot #057m4013) was dissolved in 20 ml of saline to give a LPS solution of 0.3 mg/ml. All mice were injected with 5 ml/kg (1.5 mg/kg) at the scheduled time by intraperitoneal injection.
(§11) A 32-plex cytokine panel was obtained from Eve Technologies. Each cytokine was assessed based against a 7 point curve range in duplicate. The average of the two replicate analyses was used for statistics. Unpaired t-tests were performed using Excel™ contrasting vehicle against each treatment group. One star indicates P<0.05. Two stars indicates P<0.01. Three stars indicates P<0.001. Four stars indicates P<0.0001. Most, but not all, statistically significant results are indicated with star(s).

Experiment [1] has as its system leukemia inhibitory factor (LIF). The experiment can be described thus: Acute LPS-induced sepsis in C57BL/6 mice: leukemia inhibitory factor (LIF) cytokine detection assay. The following applies: LPS-challenged mice, plasma at 6.5 h, unpaired t-test vs vehicle.
Excerpt: FIG. 21 is a graph showing the results of a leukemia inhibitory factor (LIF) cytokine detection assay in samples collected from mouse subjects after administration of compounds of the present disclosure. LIF is an interleukin 6 class cytokine that affects cell growth by inhibiting differentiation.
as §1, §8, §3, §4, §5, §9, §10, §7

For a further experiment, the system named is IL-13. The experiment can be described thus: Acute LPS-induced sepsis in C57BL/6 mice: IL-13 cytokine detection assay. The note with it: LPS-challenged mice, plasma at 6.5 h, unpaired t-test vs vehicle.
Excerpt: FIG. 17 is a graph showing the results of an IL-13 cytokine detection assay in samples collected from mouse subjects after administration of compounds of the present disclosure.
as §1, §8, §3, §4, §5, §9, §10
A 32-plex cytokine panel was obtained from Eve Technologies. Each cytokine was assessed based against a 7 point curve range in duplicate. The average of the two replicate analyses was used for statistics. […]

Another experiment relates to IL-12(p70). The experiment can be described thus: Acute LPS-induced sepsis in C57BL/6 mice: IL-12(p70) cytokine detection assay. The following applies: 75 mpk PO; LPS-challenged mice, plasma at 6.5 h; unpaired t-test vs vehicle.
Excerpt: FIG. 16 is a graph showing the results of an IL-12(p70) cytokine detection assay in samples collected from mouse subjects after administration of compounds of the present disclosure.
as §1, §2, §3, §4, §5, §9, §10
A 32-plex cytokine panel was obtained from Eve Technologies. Each cytokine was assessed based against a 7 point curve range in duplicate. The average of the two replicate analyses was used for statistics. Unpaired t-tests were performed using Excel™ contrasting vehicle against each treatment group. One star indicates P<0.05. […]

The test system of a further experiment is M-CSF (CSF1). As to the kind of experiment: Acute LPS-induced sepsis in C57BL/6 mice: M-CSF (CSF1) cytokine detection assay. The note with it: LPS-challenged mice, plasma at 6.5 h, unpaired t-test vs vehicle.
Excerpt: FIG. 24 is a graph showing the results of an M-CSF (CSF1) cytokine detection assay in samples collected from mouse subjects after administration of compounds of the present disclosure. M-CSF causes hematopoietic stem cells to differentiate into macrophages.
as §1, §8, §3, §4, §5, §9, §10, §11

For another experiment, the system named is IL-7. As to the kind of experiment: Acute LPS-induced sepsis in C57BL/6 mice: IL-7 cytokine detection assay. The following applies: 200 mpk PO; LPS-challenged mice, plasma at 6.5 h; unpaired t-test vs vehicle.
Another experiment has as its system TNFα. As to the kind of experiment: Acute LPS-induced sepsis in C57BL/6 mice: TNFα cytokine detection assay. The following applies: 200 mpk PO; LPS-challenged mice, plasma at 6.5 h; unpaired t-test vs vehicle.
Excerpt: FIG. 29 is a graph showing the results of a TNFα cytokine detection assay in samples collected from mouse subjects after administration of compounds of the present disclosure.
as §1
For the data shown in Table 2A, 103 mice (female, 18-22 gram, C57BL/6) were purchased from ENVIGO. The mice were housed in 20 cages of 5 mice per cage with 1 cage of 3 mice as extra. The cages had filter tops and autoclaved bedding, and the animals were placed in quarantine with daily inspection. The treatment groups are detailed in Table 2A below. 10 mice were included in each group. The mice were dosed by oral gavage (PO) at 10 ml/kg as per the table below. MC=methyl cellulose. […]
as §7

The subject of another experiment is IL-17. The experiment can be described thus: Acute LPS-induced sepsis in C57BL/6 mice: IL-17 cytokine detection assay. The following applies: 200 mpk PO; LPS-challenged mice, plasma at 6.5 h; unpaired t-test vs vehicle.
Excerpt: FIG. 19 is a graph showing the results of an IL-17 cytokine detection assay in samples collected from mouse subjects after administration of compounds of the present disclosure.
as §1, §2, §3, §4, §5, §6, §7

A further experiment has as its system IL-15. As to the kind of experiment: Acute LPS-induced sepsis in C57BL/6 mice: IL-15 cytokine detection assay. The following applies: 200 mpk PO; LPS-challenged mice, plasma at 6.5 h; unpaired t-test vs vehicle.
The subject of a further experiment is eotaxin. As to the kind of experiment: Acute LPS-induced sepsis in C57BL/6 mice: eotaxin cytokine detection assay. The note with it: 200 mpk PO; LPS-challenged mice, plasma at 6.5 h; unpaired t-test vs vehicle.
Another experiment concerns IL-6. As to the kind of experiment: Acute LPS-induced sepsis in C57BL/6 mice: IL-6 cytokine detection assay. The following applies: 200 mpk PO; LPS-challenged mice, plasma at 6.5 h; unpaired t-test vs vehicle.
Excerpt: FIG. 11 is a graph showing the results of an IL-6 cytokine detection assay in samples collected from mouse subjects after administration of compounds of the present disclosure.
as §1, §8, §3, §4, §5, §6, §7

A further experiment has as its system MCP-1(CCL2). As to the kind of experiment: Acute LPS-induced sepsis in C57BL/6 mice: MCP-1(CCL2) cytokine detection assay. The following applies: 200 mpk PO; LPS-challenged mice, plasma at 6.5 h; unpaired t-test vs vehicle.

Take `CC(O)(c1ccc(C(F)(F)F)cc1N)C(F)(F)F` (stereo not drawn) [Compound I-33, 2-(2-Amino-4-(trifluoromethyl)phenyl)-1,1,1-trifluoropropan-2-ol]: the “MIP-2: significant cytokine change vs. vehicle” value in the experiment with MIP2(CXCL2) (75 mpk PO) is listed as “** (Two stars indicates P<0.01)”. The “IL-3: significant cytokine change vs. vehicle” value with IL-3 is given as “** (Two stars indicates P<0.01)”. Further, the “KC: significant cytokine change vs. vehicle” value in the experiment with KC (75 mpk PO) was “** (Two stars indicates P<0.01)”. Further, the “LIF: significant cytokine change vs. vehicle” value in experiment [1] (75 mpk PO) was “**** (Four stars indicates P<0.0001)”. Moreover, the “IL-13: significant cytokine change vs. vehicle” value in the experiment on IL-13 (75 mpk PO) is “** (Two stars indicates P<0.01)”. Moreover, in the experiment with IL-12(p70), the “IL-12 (p70): significant cytokine change vs. vehicle” value is “* (One star indicates P<0.05)”.

Consider `CC(C)(O)c1ncc(C(F)(F)F)cc1N` [Compound I-24, 2-(3-Amino-5-(trifluoromethyl)pyridin-2-yl) propan-2-ol], for which the “M-CSF: significant cytokine change vs. vehicle” value in the experiment on M-CSF (CSF1) (200 mpk PO) is “* (One star indicates P<0.05)”.

`CC(O)(c1sc2cccc(Br)c2c1N)C(F)(F)F` (stereo not drawn) [Compound I-2, 2-(3-amino-4-bromobenzo[b]thiophen-2-yl)-1,1,1-trifluoropropan-2-ol]: the “MIP-2: significant cytokine change vs. vehicle” value in the experiment on MIP2(CXCL2) (200 mpk PO) is listed as “*** (Three stars indicates P<0.001)”. The “IL-7: significant cytokine change vs. vehicle” value with IL-7 is “** (Two stars indicates P<0.01)”. For the same compound, the “TNFa: significant cytokine change vs. vehicle” value in the experiment on TNFα is “**** (Four stars indicates P<0.0001)”. Moreover, in the experiment on IL-17, the “IL-17: significant cytokine change vs. vehicle” value is reported as “*** (Three stars indicates P<0.001)”. For the same compound, in the experiment with KC (200 mpk PO), the “KC: significant cytokine change vs. vehicle” value is “*** (Three stars indicates P<0.001)”. Moreover, the “LIF: significant cytokine change vs. vehicle” value in experiment [1] (200 mpk PO) is “** (Two stars indicates P<0.01)”. The “IL-15: significant cytokine change vs. vehicle” value with IL-15 is reported as “** (Two stars indicates P<0.01)”. For the same compound, the “IL-13: significant cytokine change vs. vehicle” value in the experiment on IL-13 (200 mpk PO) is “**** (Four stars indicates P<0.0001)”. Also, in the experiment with eotaxin, the “Eotaxin: significant cytokine change vs. vehicle” value is on record as “** (Two stars indicates P<0.01)”. The “IL-6: significant cytokine change vs. vehicle” value in the experiment with IL-6 is recorded as “**** (Four stars indicates P<0.0001)”. Besides, the “MCP-1: significant cytokine change vs. vehicle” value in the experiment on MCP-1(CCL2) is recorded as “*** (Three stars indicates P<0.001)”.

Regarding `CC(C)(O)c1cc2occc2cc1N` [Compound I-22, 2-(5-Aminobenzofuran-6-yl) propan-2-ol], the “M-CSF: significant cytokine change vs. vehicle” value in the experiment on M-CSF (CSF1) (100 mpk PO) is “** (Two stars indicates P<0.01)”.

For the compound `COc1ccc2c(c1)NC(=O)[C@@H](CO)N2` [Compound I-7, (R)-3-(Hydroxymethyl)-7-methoxy-3,4-dihydroquinoxalin-2(1H)-one], the “TNFa: significant cytokine change vs. vehicle” value with TNFα was “* (One star indicates P<0.05)”. Besides, the “KC: significant cytokine change vs. vehicle” value in the experiment on KC (200 mpk PO) is given as “* (One star indicates P<0.05)”. Moreover, the “M-CSF: significant cytokine change vs. vehicle” value in the experiment on M-CSF (CSF1) (200 mpk PO) is “*** (Three stars indicates P<0.001)”. The “IL-6: significant cytokine change vs. vehicle” value in the experiment with IL-6 is given as “* (One star indicates P<0.05)”. The “MCP-1: significant cytokine change vs. vehicle” value in the experiment with MCP-1(CCL2) was “* (One star indicates P<0.05)”.
